How the values were obtained:
[1] = test system: zebrafish saccule hair cells; test: Hair cell quantification, saccule; format: in vivo, Danio rerio; conditions: 25 mg/kg i.p., 48 hours; for effect on hair cell density in four regions of the saccule compared to vehicle: 5, 25, 50, 75% regions
Method: (§1) Zebrafish (Danio rerio) were purchased from a commercial supplier (Segrest Farms, Gibsonton, FL) and maintained in the animal facility of Western Kentucky University according to a protocol approved by the Institutional Animal Care and Use Committee. All zebrafish used in this study were a mix of male and female adult animals at least 6 months of age and were maintained according to standard methods.
After injection, fish were returned to holding tanks for either 24 or 48 hours and then subjected to hearing tests followed by hair cell quantification analysis.
Hair cell counts were performed from specific regions of the zebrafish saccule and utricle using established procedures. […] Prior to dissection, heads were rinsed three times for 10 minutes each at room temperature in phosphate buffer (pH 7.4, LabChem, Pittsburgh, PA) and the inner ear epithelia (saccule and utricle) were then carefully dissected out and trimmed. […] Tissue samples were then placed on glass slides and nuclei were labelled with Prolong Gold antifade reagent (4’,6-diamidino-2-phenylindole [DAPI], Life Technologies, Carlsbad, CA) and a cover-slip was placed over the samples for microscopy.
Saccule and utricle samples were viewed through the FITC filter of a Zeiss Axioplan2 epifluorescence microscope (Carl Zeiss, Jena, Germany) at 20X magnification and were then photographed using an AxioCam MRm camera. Cell counts were made from four regions of the saccule (5%, 25%, 50%, 75%) along the rostral-caudal length of the organ by placing a 50 μm x 50 μm box at each location and using the microscope cell counter feature. In the utricular samples, cell counts were made from three equidistant 50 μm x 50 μm boxes in both the extrastriolar and striolar regions.
(§2) GraphPad Prism v6 (La Jolla, CA) was used for all statistical analysis. Nuclear fraction platinum uptake as a total percent of combined nuclear and cytosolic uptake was analyzed using a one-way ANOVA (Brown-Forsyth test; p ≤ 0.05). IC50 values were calculated in Prism using the sigmoidal, 4PL, x is log(concentration) analysis feature or were calculated from Prism derived values using the equation y = mx + b. MTT assay standard deviation values were calculated using ED50plus v1.0 online software. AEP threshold data were analyzed by two-way ANOVA (Dunnett’s multiple comparisons test; p ≤ 0.05) and hair cell quantification data by two-way ANOVA (Tukey’s multiple comparisons test; p ≤ 0.05). AEP temporary threshold shifts (TTS) were calculated by subtracting the mean vehicle threshold for each frequency from each treatment threshold. TTS data were averaged across frequencies for each treatment and were analyzed by one-way ANOVA (Tukey’s multiple comparisons test; p ≤ 0.05).

[2] = test system: zebrafish utricle hair cells; test: Hair cell quantification, utricle; format: in vivo, Danio rerio; conditions: extrastriolar (E1-E3) and striolar (S1-S3) regions, 25 mg/kg i.p., 48 hours
Excerpt: as §1
Zebrafish were sedated with tricaine methanesulfonate (MS-222, Argent, Redmond, WA), weighed, and then intraperitoneally microinjected with 25 mg/kg body weight of platinum test compound or an equivalent volume of vehicle (0.9% NaCl) control using a 35 gauge syringe operated by a Micro4 microsyringe pump controller (World Precision Instruments, Sarasota, FL). After injection, fish were returned to holding tanks for either 24 or 48 hours and then subjected to hearing tests followed by hair cell quantification analysis. […]
GraphPad Prism v6 (La Jolla, CA) was used for all statistical analysis. Nuclear fraction platinum uptake as a total percent of combined nuclear and cytosolic uptake was analyzed using a one-way ANOVA (Brown-Forsyth test; p ≤ 0.05). IC50 values were calculated in Prism using the sigmoidal, 4PL, x is log(concentration) analysis feature or were calculated from Prism derived values using the equation y = mx + b. […]

[3] = test system: A549 lung cancer cell line; test: MTT cellular viability assay, A549; format: cell-based; conditions: 72 hours, ± standard deviation
Method: (§3) Cell lines were obtained from American Type Culture Collection (ATCC, Manassas, VA). […] Caco-2 (ATCC: HTB-37) colorectal cancer was grown in EMEM with 20% FBS and 1% penicillin/streptomycin. All cell lines were incubated at 37°C in 5% CO2 with passaging every 4–7 days. Cell culture media and supplements were obtained from ATCC, Atlanta Biologicals (Flowery Branch, GA), Mediatech (Tewksbury, MA), Fisher Scientific (Waltham, MA), Gibco (Gaithersburg, MD) and Sigma-Aldrich.
(§4) The MTT (3-(4,5-dimethylthiazol-2-yl)-2,5-diphenyltetrazolium bromide) cellular viability assay was performed in all three cancer cell lines and the non-cancer cell line. Following a protocol adapted from, cells were seeded at 5,000 cells per well in 96-well plates and incubated at 37°C in 5% CO2 in F-12K Medium or EMEM with FBS supplementation and 1% penicillin/streptomycin for 24 hours. Then, wells were treated in replicates of six according to a concentration series (500, 50, 5, 0.5, 0.05 μM) of specific platinum complexes for 72 hours. A negative control (media only), positive control (Triton X-100) and series of blanks were simultaneously performed. The MTT assay was run for 2 hours, then well contents were rapidly evacuated out and all wells were treated with MTT solubilization solution [10% Triton X-100 in acidic (0.1N HCl) isopropanol] for 15 minutes before the plates were read using a BioTek Synergy HT microplate plate reader (570 nm and 690 nm absorbance wavelengths). Reagents, cell culture media and supplements were obtained from ATCC, Atlanta Biologicals, Mediatech, Fisher Scientific, Gibco and Sigma-Aldrich.
as §2

[4] = test system: Caco-2 colorectal cancer cell line; test: MTT cellular viability assay, Caco2; format: cell-based; conditions: 72 hours, ± standard deviation
Method: as §3, §4, §2

[5] = test system: A549, Caco2, HTB16 and IMR90 cell lines; test: MTT cellular viability assay, comparison over all cell lines; format: cell-based; conditions: in our cell lines (Table 2)
Method: Cell lines were obtained from American Type Culture Collection (ATCC, Manassas, VA). The A549 (ATCC: CCL-185) lung cancer cell line was grown in F12K media with 10% FBS and 1% penicillin/streptomycin supplementation. Both the U-138 MG (ATCC: HTB-16) glioblastoma cancer cell line and IMR-90 (ATCC: CCL-186) lung fibroblast control cell line were grown in Eagle’s Minimum Essential Medium (EMEM) with supplementation as in A549. Caco-2 (ATCC: HTB-37) colorectal cancer was grown in EMEM with 20% FBS and 1% penicillin/streptomycin. All cell lines were incubated at 37°C in 5% CO2 with passaging every 4–7 days. […]
The MTT (3-(4,5-dimethylthiazol-2-yl)-2,5-diphenyltetrazolium bromide) cellular viability assay was performed in all three cancer cell lines and the non-cancer cell line. […] The MTT assay was run for 2 hours, then well contents were rapidly evacuated out and all wells were treated with MTT solubilization solution [10% Triton X-100 in acidic (0.1N HCl) isopropanol] for 15 minutes before the plates were read using a BioTek Synergy HT microplate plate reader (570 nm and 690 nm absorbance wavelengths). […]
GraphPad Prism v6 (La Jolla, CA) was used for all statistical analysis. Nuclear fraction platinum uptake as a total percent of combined nuclear and cytosolic uptake was analyzed using a one-way ANOVA (Brown-Forsyth test; p ≤ 0.05). […]

Molecule | effect on hair cell density in four regions of the saccule compared to vehicle [1] | effect on utricle hair cell density compared to vehicle [2] | IC50 [3] [µM] | IC50 [4] [µM] | saccule hair cell density, % of control ([1]; 50% location along rostral-caudal axis) | factor by which cellular viability is reduced more than by pyriplatin [5]
[Cl][Pt-2]12[NH2+]CC[NH+]1CC[NH2+]2 (centres unmarked) [[Pt(dien)Cl]^+, Pt(diethylenetriamine)Cl] | no significant reduction in hair cell bundles | one elevated mean hair cell density count at S2 | 198 ± 4.8 | 41.5 ± 0.72 |  | 
phenanthriplatin | reduction only at 50% |  |  | 1.6 ± 1.22 | 64.8 % of control | at least 10

Source: PMC5841658, “Anti-cancer characteristics and ototoxicity of platinum(II) amine complexes with only one leaving ligand” (PLoS ONE, 2018)
